Results: US20060094676A1, “Compositions and methods for treating cancer using compositions comprising an inhibitor of endothelin receptor activity” (priority 2004, published 2006)

What was measured:
HIF-1α = assay: Real-time RT-PCR of HIF-1α transcripts; type: cell-based, human; details: melanoma cell lines treated with BQ788; amplitude correlates with VEGF changes
Procedure: (§1) Equal amounts of RNA from cells that were treated with BQ788 for 3 days were subjected to real-time RT-PCR analysis for the detection VEGF (A), HIF-1α (B) and Gravin (C) transcripts. Differences in expression levels are shown as x fold change and are statistically significant (p<0.05) unless a column in marked as non significant (N.S.). Sections of two representative tumors derived from a human melanoma cell line grown in nude mice and injected either with vehicle (D) or BQ788 (E) were stained with anti CD-31 to highlight blood vessels (brown staining, Lahav et al, 1999).
(§2) RNA was prepared from the different cell lines in different culture conditions using SV total RNA isolation kit (Promega) according to the manufacturer's protocol. For each sample RNA concentration was determined using the total RNA nano procedure of an Agilent bioanalyzer. A stock of SK-MEL-28 RNA aliquots was prepared containing 10, 20, 50, 100, 200, 500 and 1000 ng/12 μl for use as a standard curve and kept in −80° C. For the experimental unknown samples, a stock of 100 ng/12 μl RNA aliquots from each cell line and condition was prepared and stored at −80° C. […] A standard curve of Ct versus RNA quantity was established and accordingly the Ct in the unknown samples was correlated to quantity of transcript. […]

GRAVIN = assay: Real-time RT-PCR of Gravin transcripts; type: cell-based, human; details: melanoma cell lines treated with BQ788
Procedure: as §1, §2

SMILES: CCCC[C@@H](NC(=O)[C@@H](Cc1cn(C(=O)OC)c2ccccc12)NC(=O)[C@H](CC(C)(C)C)NC(=O)N1[C@H](C)CCC[C@@H]1C)C(=O)O [BQ788, N-cis-2,6-dimethylpiperidinocarbonyl-L-γ-methylleucyl-D-1-methoxycarbonyltrptophanyl-D-norleucine]
- HIF-1α RNA expression levels (HIF-1α): small but significant changes
- GRAVIN expression (GRAVIN): down-regulated
